Test results reported in patent US20020177168A1, “Chemical sensor and method of detecting chemicals” (priority 2000, published 2002).

Legend:
OBPb [1] = molecular target: T1, OBPb (Bos taurus, UniProt P07435); assay: Dissociation constant KD of odorant for OBPb; type: binding, bovine; settings: affinity of odorant for OBPb
T1 sequence (P07435 1-159): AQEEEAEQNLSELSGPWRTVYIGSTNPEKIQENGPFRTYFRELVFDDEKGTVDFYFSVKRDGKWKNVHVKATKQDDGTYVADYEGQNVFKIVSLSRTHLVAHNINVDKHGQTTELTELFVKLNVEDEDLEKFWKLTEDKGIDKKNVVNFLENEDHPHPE

OBPb [2] = molecular target: T1, OBPb; assay: Time variation of tryptophane and AMA fluorescence upon addition of AMA to OBPb; type: binding, bovine; settings: ex 295 nm
Procedure: (§1) An OBPb solution of 10 μM in concentration was prepared. AMA, DMO and geraniol were dissolved in ethanol respectively, for preparing an AMA solution, a DMO solution and a geraniol solution of 10^−2 M in concentration.
Then, time variations of fluorescence from AMA and fluorescence from tryptophane upon addition of AMA were measured. FIG. 13 illustrates results of measurement of fluorescence intensity change of tryptophane bonded with AMA. The excitation wavelength for tryptophane is 295 nm, and the fluorescence wavelength is 340 nm. FIG. 14 illustrates results of measurement of fluorescence intensity change of AMA bonded with […]. The excitation wavelength for AMA is 295 nm, and the fluorescence wavelength is 480 nm. Referring to FIGS. 13 and 14, the horizontal axes show post-addition elapsed times, and the vertical axis show relative fluorescence intensity difference levels. The relative fluorescence intensity difference was calculated by dividing the difference between fluorescence intensity at a time 0 and fluorescence intensity at each time by the fluorescence intensity at the time 0.

[3] = molecular target: T2, bovine derivation odorant binding protein (OBPb) (Bos taurus, UniProt P07435); assay: Fluorometry of OBPb with DMO and BPA at different concentrations (Inventive Example 2); settings: for attenuation of fluorescence intensity versus concentration: 10^−9 to 10^−6 M
T2 sequence (P07435 1-159): T1 sequence (P07435 1-159)
Procedure: In preparation of the OBPb solution employed for Inventive Example 2, an OBPb solution of 250 nM in concentration was prepared by a method similar to that in Inventive Example 1.
In preparation of the DMO solutions and the BPA solutions employed for Inventive Example 2, on the other hand, two types of odorants of DMO and BPA were dissolved in ethanol (EtOH) respectively, for preparing a solution of 10^−2 M in concentration as to each odorant. Further, the DMO solution and the BPA solution of 10^−2 M in concentration prepared in the aforementioned manner were diluted with EtOH respectively, thereby preparing solutions of 10^−3 M, 10^−4 M, 10^−5 M and 10^−6 M in concentration respectively. Thus, DMO solutions and BPA solutions of 10^−3 M, 10^−4 M, 10^−5 M and 10^−6 M in concentration were prepared.
300 μl of the OBPb solution of 250 nM in concentration and 0.3 μl of each of the DMO solutions of 10^−3 M, 10^−4 M, 10^−5 M and 10^−6 M in concentration prepared in the aforementioned manner were mixed with each other thereby preparing sample solutions having final DMO concentrations of 10^−9 M, 10^−8 M, 10^−7 M and 10^−6 M respectively. Sample solutions having final concentrations of 10^−9 M, 10^−8 M, 10^−7 M and 10^−6 M respectively were prepared also as to BPA by a preparation method similar to that for the case of DMO.
After preparing the sample solutions in the aforementioned manner, the fluorescence intensity was measured as to each sample solution by a method similar to that in Inventive Example 1. Further, the relation between the concentrations and the fluorescence intensity of DMO and BPA was investigated on the basis of results at a point after a lapse of 20 minutes from initiation of measurement and at a point after a lapse of 30 minutes from initiation of measurement among results obtained by measuring the fluorescence intensity.
Also in this case, the point of initiation of measurement was set to the point of an elapsed time of 0 minutes while setting the fluorescence intensity at this point to 100% as a reference value for calculating a relative value of the fluorescence intensity at each point on the basis of this reference value.

[4] = molecular target: T2, bovine derivation odorant binding protein (OBPb); assay: Fluorometry of tryptophane fluorescence of OBPb with four odorants (Inventive Example 1); settings: for affinity for the OBPb (relative, among the four odorants): FIG. 4(b); for reduction of the fluorescence intensity: odorant 10 μM, OBPb 250 nM, excitation 280 nm, fluorescence 340 nm, among the four odorants, FIG. 4(b) at 10 minutes
Procedure: In order to prepare the OBPb solution employed for Inventive Example 1, bovine derivation odorant binding protein (OBPb) was first dissolved in a phosphate buffer (PBS; phosphate buffered saline), and PBS was further added to this OBPb solution for diluting the same until the concentration of the solution reached 250 nM.
In order to prepare the odorant solution employed for Inventive Example 1, four types of odorants, i.e., dimethyl octanol (DMO), citronellal, citronellol and geraniol were dissolved in ethanol solutions (EtOH) respectively, for preparing an odorant solution of 10^−2 M in concentration as to each odorant.
300 μl of the OBPb solution of 250 nM in concentration and 0.3 μl of each odorant solution of 10^−2 M in concentration prepared in the aforementioned manner were mixed with each other for preparing a sample solution employed for measuring fluorescence intensity as to each of the four types of odorants. In this case, the final concentration of the odorant in each sample solution is 10 μM. A sample of only OBPb containing no odorant, i.e., that obtained by mixing an OBPb solution and an ethanol solution with each other, was also prepared as a comparative sample.
Each sample solution prepared in the aforementioned manner was introduced into a quartz cell for fluorescence while sealing an opening for preventing evaporation. The aforementioned cell was set in a cell holder of a fluorometer (F-4000 by Hitachi, Ltd.) and left to stand for 10 minutes for temperature balancing.
In measurement of the fluorescence intensity of each sample solution, a shutter of the fluorometer was first opened for irradiating the sample solution with light of 280 nm in wavelength from a slit of 10 nm in width and exciting tryptophane constituting the OBPb contained in the sample solution. Fluorescence of 340 nm in wavelength obtained from the tryptophane excited in this manner was taken out through the slit of 10 nm in width, for measuring the intensity of the obtained fluorescence.
In this case, the switching time for the shutter of the fluorometer was set to two seconds for opening/closing the shutter at intervals of five minutes and measuring the fluorescence intensity of the sample solution over 30 minutes.
Referring to FIG. 4, the point of initiation of measurement is set to the point of the elapsed time of 0 minutes, and the fluorescence intensity of the sample solution at this point is set to 100%. Thus, the fluorescence intensity at the elapsed time of 0 minutes, i.e., the point of initiation of measurement was set to 100% as to each sample solution for regarding this as a reference value and calculating a relative value of the fluorescence at each point every five minutes on the basis of this reference value.

OBPb-norm (normal OBPb) = molecular target: T3, OBPb-norm (normal OBPb) (Bos taurus, UniProt P07435); assay: Relative tryptophane fluorescence intensity change after DMO addition, OBPb-norm; type: binding, bovine; settings: DMO 10 μM, OBPb 250 nM, 25 degrees, ex 295 nm, em 340 nm
T3 sequence (P07435 1-159): T1 sequence (P07435 1-159)
Procedure: (§2) OBPb-norm shown in FIG. 7(a) is normal (unvaried) OBPb. OBPb-del shown in FIG. 7(b) is OBPb obtained by deleting Phe (phenylalanine) 149 up to Glu (glutamic acid) 159.
(§3) As to the OBPb-norm and the OBP-del, the relation between post-addition elapsed times and change of relative fluorescence intensity was investigated by adding dimethyl octanol (DMO) employed as an odorant to OBPb solutions.
(§4) The concentration of OBPb in PBS was set to 250 nM, and the concentration of a DMO solution was set to 10 μM. The DMO solution was added to the OBPb solution, which in turn was thereafter incubated at 25 degrees, for taking out part at each time and measuring fluorescence (excitation wavelength: 295 nm, fluorescence wavelength: 340 nm) of tryptophane present in the central pocket CP.
(§5) The difference in relative fluorescence intensity was calculated by dividing the difference between fluorescence intensity at a time 0 and fluorescence intensity at each time by the fluorescence intensity at the time 0.

[5] = molecular target: T4, OBPb-del (OBPb with Phe 149 up to Glu 159 deleted) (Bos taurus, UniProt P07435); assay: Relative tryptophane fluorescence intensity change after DMO addition, OBP-del; type: binding, bovine; settings: DMO 10 μM, OBPb 250 nM, 25 degrees, ex 295 nm, em 340 nm
T4 construct: made in house
T4 sequence (P07435 1-148): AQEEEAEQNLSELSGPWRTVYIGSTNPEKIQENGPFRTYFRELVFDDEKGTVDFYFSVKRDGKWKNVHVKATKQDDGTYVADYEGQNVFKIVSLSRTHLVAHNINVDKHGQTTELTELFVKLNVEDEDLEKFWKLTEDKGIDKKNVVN
Procedure: as §2, §3, §4, §5

[6] = molecular target: T5, OBPb-norm central pocket CP (Bos taurus, UniProt P07435); assay: Time variation of peaks of tryptophane difference fluorescence spectra, OBPb-norm; type: binding, bovine; settings: 0 to 60 minutes after addition
T5 sequence (P07435 1-159): T1 sequence (P07435 1-159)
Source text: (§6) Then, time variations of peaks of fluorescence spectra of tryptophane in central pockets CP bonded with odorants were investigated as to DMO and geraniol employed as odorants.
(§7) When tryptophane is in OBPb, the peak wavelength of the fluorescence spectrum of tryptophane is 345 nm. In general, the fluorescence wavelength of tryptophane shifts to a longer wavelength in hydrophilic environment, and shifts to a shorter wavelength in hydrophobic environment. At this point, a fluorescence spectrum upon bonding with an odorant was measured for calculating difference between the same and a spectrum at 0 minutes and investigating the relation between the peak intensity and the elapsed time.
(§8) The difference spectrum was calculated by subtracting the fluorescence spectrum at each time from the fluorescence spectrum at 0 minutes. When a peak of the fluorescence spectrum at a certain time shifts to a shorter wavelength beyond 345 nm (i.e., rendered hydrophobic), therefore, it follows that the peak of the difference spectrum shifts to a longer wavelength beyond 345 nm to the contrary.

OBP-del = molecular target: T6, OBP-del (Bos taurus, UniProt P07435); assay: Time variation of peaks of tryptophane difference fluorescence spectra, OBP-del; type: binding, bovine; settings: during bonding reaction, 0 to 60 minutes
T6 construct: made in house
T6 sequence (P07435 1-148): T4 sequence (P07435 1-148)
Source text: as §6, §7, §8

OBPb bonded with AMA = molecular target: T7, OBPb bonded with AMA (Bos taurus, UniProt P07435); assay: Substitution of AMA bonded to OBPb by other odorants (AMA and tyrosine fluorescence); type: binding, bovine; settings: for fluorescence intensity of tyrosine on adding the odorant: ex 250 nm, em 300 nm, immediately after addition (0 minutes); for fluorescence intensity of AMA / dissociation of AMA from OBPb on adding the odorant: ex 295 nm, em 481 nm, 0 minutes
T7 sequence (P07435 1-159): T1 sequence (P07435 1-159)
Procedure: Further, investigation was made as to how an odorant once bonded to OBPb behaves when other odorants are thereafter bonded. Aminoanthracene (AMA) which is a fluorescent odorant was employed as a previously bonded odorant, and DMO and geraniol were used as odorants added to the AMA bond.
as §1
First, 0.1 μl of an AMA solution was added to 100 μl of an OBPb solution, and left to stand at 25° C. for one hour for bonding AMA to OBPb. Phosphate buffer saline (PBS) was added to this solution up to 4 ml (diluted to 40 times), 4 μl of ethanol, DMO or geraniol was added and thereafter parts of 300 μl were taken out after lapses of 0, 5, 10, 15, 20, 25, 30, 40 and 60 minutes for measuring fluorescence intensity of AMA (excitation wavelength: 295 nm, measurement wavelength: 481 nm) and fluorescence intensity of […].
In measurement of the fluorescence intensity of tyrosine, the excitation wavelength is 250 nm, and the measurement wavelength is 300 nm. Tyrosine is present in an internal cavity of a monomer of OBPb. Therefore, dissociation of the odorant from the internal cavity IC can be measured by change of the fluorescence intensity of tyrosine (the fluorescence reduces when tyrosine becomes hydrophilic).

| Compound | Kd (OBPb [1]) | fluorescence intensity of tryptophane after addition of AMA (OBPb [2]; em 340 nm) | fluorescence intensity of AMA after addition of AMA (OBPb [2]; em 480 nm) | attenuation of fluorescence intensity versus concentration ([3]; after 20 and 30 minutes) | range in which discrimination based on the fluorescence intensity is possible ([3]; after 20 and 30 minutes) | range in which discrimination based on the fluorescence intensity is possible ([3]; conversion of 10^−9 M) | affinity for the OBPb (relative, among the four odorants) [4] | reduction of the fluorescence intensity [4] | relative fluorescence intensity change of tryptophane with time (OBPb-norm (normal OBPb)) | relative fluorescence intensity change of tryptophane with time [5] | bonding to the central pocket CP (from peak wavelengths of difference spectra) [6] | peak wavelengths of the difference spectra of tryptophane (OBP-del) | fluorescence intensity of tyrosine on adding the odorant (OBPb bonded with AMA) | fluorescence intensity of AMA / dissociation of AMA from OBPb on adding the odorant (OBPb bonded with AMA) |
| --- | --- | --- | --- | --- | --- | --- | --- | --- | --- | --- | --- | --- | --- | --- |
| Nc1cccc2cc3ccccc3cc12 [AMA, Aminoanthracene] | ~1300 nM | temporarily reduces after addition of AMA and thereafter increases | increases after addition of AMA, takes a constant value and thereafter reduces |  |  |  |  |  |  |  |  |  |  |  |
| CC(C)(c1ccc(O)cc1)c1ccc(O)cc1 [BPA, bisphenol A] |  |  |  | attenuation of the fluorescence intensity is reduced as the concentration of DMO or BPA is increased | 10^−9 M | about 200 ppt |  |  |  |  |  |  |  |  |
| CC(C)CCCC(C)CCO (stereo not shown) [DMO] | ~300 nM |  |  | attenuation of the fluorescence intensity is reduced as the concentration of DMO or BPA is increased | 10^−9 M | about 200 ppt | highest affinity | at the minimum | rises with time | no variation with presence/absence of the odorant | dissociates after being bonded to the central pocket CP | remained unchanged | No change of the fluorescence intensity was observed | AMA dissociates immediately after addition |
| CC(C)=CCC/C(C)=C/CO [geraniol] | ~3000 nM |  |  |  |  |  | lowest affinity | at the maximum |  |  | remains bonded to the central pocket CP | remained unchanged | reduction of the fluorescence intensity was observed | AMA dissociates immediately after addition |
